Here are results for six compounds from patent publication US20050171195A1, “P2X7 antagonists for treating neuropathic pain” (priority 2003, published 2005).

One data set deals with T1, P2X7 receptor (Homo sapiens, UniProt Q99572).
T1 construct: endogenous in cells; host or cells: THP-1 cells
T1 sequence (Q99572 1-595): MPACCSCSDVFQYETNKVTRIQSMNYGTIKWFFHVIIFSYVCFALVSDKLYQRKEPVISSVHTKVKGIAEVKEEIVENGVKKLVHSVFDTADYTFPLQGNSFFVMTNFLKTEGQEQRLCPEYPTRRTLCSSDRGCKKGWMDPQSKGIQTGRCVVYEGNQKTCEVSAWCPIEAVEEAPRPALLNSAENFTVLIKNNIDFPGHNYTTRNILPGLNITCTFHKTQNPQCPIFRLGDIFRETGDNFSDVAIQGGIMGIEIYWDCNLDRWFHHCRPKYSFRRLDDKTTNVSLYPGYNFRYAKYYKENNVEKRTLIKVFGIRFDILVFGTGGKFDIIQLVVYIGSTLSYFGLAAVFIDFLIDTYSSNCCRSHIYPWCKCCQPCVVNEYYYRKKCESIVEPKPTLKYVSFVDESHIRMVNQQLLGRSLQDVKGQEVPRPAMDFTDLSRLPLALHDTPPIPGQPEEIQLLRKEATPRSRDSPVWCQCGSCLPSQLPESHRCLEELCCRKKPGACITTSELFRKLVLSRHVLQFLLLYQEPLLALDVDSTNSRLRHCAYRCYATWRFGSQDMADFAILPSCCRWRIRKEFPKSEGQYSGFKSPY
Description: P2X7 mediated pore formation (YO-PRO dye uptake, FLIPR). To be noted: THP-1 cells. The data set is classed as cell-based. The protocol:
P2X7 Mediated Pore Formation. Activation of the P2X7 receptor induces nonspecific pore formation and eventually cell lysis (Verhoef et al., The Journal of Immunology, Vol. 170, pages 5728-5738, 2003). Accordingly, the inhibitory activity of the antagonists of the present invention was determined by their capacity to inhibit the agonist-induced pore formation using the fluorescent dye YO-PRO (MW=629) and Fluorescence Imaging Plate Reader (FLIPR, Molecular Devices, Sunnydale, Calif.) in THP-1 cells. […] The YO-PRO iodide dye (1 mM in DMSO) was diluted to a final concentration of 2 μM in PBS (w/o Mg^2+ or Ca^2+) and then placed on the cells immediately prior to the agonist addition. Since the THP-1 cells are a non-adherent cell line, the cells were washed in PBS and loaded with the dye in a conical tube prior to spinning the cells onto poly-lysine-coated black-walled 96-well plates, which were utilized to reduce light scattering. […] The intensity of the fluorescence was captured by the CCD camera every 15 seconds for the first 10 minutes of agonist exposure followed by every 20 seconds for an additional 50 minutes with the data being digitally transferred to an interfaced PC. The exposure setting of the camera was 0.25 sec with an f-stop setting of 2. […]
With benzoylbenzoic ATP [BzATP], the “EC70 value for agonist activation” value is 50 µM.

Tested on in another data set: not given
Assay: not given
Settings: not given
Consider `Cc1ccc2c(NC(=NC#N)NC(NC(=O)Cc3ccc(Cl)cc3)C(C)(C)C)cccc2n1` (stereo not drawn) [Example 44, 2-(4-chlorophenyl)-N-[1-({(cyanoimino)[(2-methyl-5-quinolinyl)amino]methyl}amino)-2,2-dimethylpropyl]acetamide], for which the melting point fell in the range of 198 to 199 °C.

For the compound `CC(C)(C)C(NC(=O)Cc1ccc(Cl)cc1)NC(=NC#N)Nc1cccc2cnsc12` (stereo not drawn) [Example 45, N-(1-{[(1,2-benzisothiazol-7-ylamino)(cyanoimino)methyl]amino}-2,2-dimethylpropyl)-2-(4-chlorophenyl)acetamide], the melting point fell in the range of 135 to 137 °C.

`COc1cc(OC)cc(C(=O)NC(NC(=NC#N)Nc2cccnc2OC)C(C)(Cl)Cl)c1` (stereo not drawn) [Example 50, N-[2,2-dichloro-1-({(cyanoimino)[(2-methoxy-3-pyridinyl)amino]methyl}amino)propyl]-3,5-dimethoxybenzamide]: the melting point was 198 to 199 °C. In the case of `COc1ccc(NC(=NC#N)NC(NC(=O)c2ccc(Cl)cc2)C(C)(Cl)Cl)c(OC)n1` (stereo not drawn) [Example 51, 4-chloro-N-[2,2-dichloro-1-({(cyanoimino)[(2,6-dimethoxy-3-pyridinyl)amino]methyl}amino)propyl]benzamide], the melting point lay in the range of 162 to 163 °C. For `COc1ccc(CC(=O)NC(NC(=NC#N)Nc2cccnc2OC)C(C)(Cl)Cl)cc1OC` (stereo not drawn) [Example 54, N-[2,2-dichloro-1-({(cyanoimino)[(2-methoxy-3-pyridinyl)amino]methyl}amino)propyl]-2-(3,4-dimethoxyphenyl)acetamide], the melting point lay within 188 to 190 °C.
